The record followed here is article PMC9586938, “Picomolar fluorescent probes for compound affinity determination to carbonic anhydrase IX expressed in live cancer cells” (Scientific Reports, 2022).

One assay concerns the target T1, CAVB (Homo sapiens, UniProt Q9Y2D0).
T1 construct: made in house; host or cells: E. coli
The experiment in a line: Thermal shift assay (TSA), recombinant CAVB. It counts as binding. Particulars: 37 °C, pH 7.0, observed (not intrinsic).

The next assay deals with T2, CAIII (Homo sapiens, UniProt P07451).
T2 construct: made in house; host or cells: E. coli
T2 sequence (P07451 whole entry): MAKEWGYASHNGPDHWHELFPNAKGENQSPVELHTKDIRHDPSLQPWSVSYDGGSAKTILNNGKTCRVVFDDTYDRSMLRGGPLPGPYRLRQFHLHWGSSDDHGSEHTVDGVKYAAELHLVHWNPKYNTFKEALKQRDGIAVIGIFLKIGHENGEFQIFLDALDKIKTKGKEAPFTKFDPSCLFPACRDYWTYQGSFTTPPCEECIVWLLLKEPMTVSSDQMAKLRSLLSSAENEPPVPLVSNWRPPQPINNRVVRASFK
Put plainly: Thermal shift assay (TSA), recombinant CAIII. Particulars: 37 °C, pH 7.0, observed (not intrinsic). The format is binding. As for the experimental part: (§1) The binding affinities of all fluorescein-containing compounds were determined for all 12 catalytically active CA isozymes by the thermal shift assay (TSA). […] However, the SFA technique cannot determine the affinities lower than the enzyme concentration used in the assay. […] In addition, we used isothermal titration calorimetry (ITC), the standard assay to determine affinity and enthalpy of protein–ligand binding. […] Therefore, ITC was used only to determine the enthalpy of interaction and confirm the ordering of compound affinities.
(§2) All twelve catalytically active human CA isozymes were prepared recombinantly as previously described. Isozymes CAIX, CAXII, and CAXIV were the catalytic domains of the proteins[14],[38]. All isozymes were expressed in E. coli except CAIX that has been prepared in mammalian cells. The proteins were chromatographically purified on ion-exchange or benzene sulfonamide containing affinity columns. Protein MW was confirmed by mass spectrometry with 1 Da precision as predicted from gene sequence.
(§3) Compound affinities for the twelve catalytically active CA isozymes were determined by the thermal shift assay as previously described[30],[39]. Protein solutions containing 1,8-anilinonaphthalenesulfonate fluorescent probe were heated from 25 to 100 °C at a rate of one degree per minute while following the fluorescence of the probe. The temperature scanning curves provided the melting temperature Tm of the protein. The Tm has a distinct dependence on the concentration of a compound. Stronger binders shift the Tm to a greater extent than the weak binders. The Tm dependencies on compound concentration were fit to obtain the affinity Kd[40].

Another assay concerns the target T3, CAI (Homo sapiens, UniProt P00915).
T3 construct: made in house; host or cells: E. coli
Put plainly: Thermal shift assay (TSA), recombinant CAI. The format is binding. Particulars: 37 °C, pH 7.0, observed (not intrinsic).

For a further assay, the target named is T4, CAXIII (Homo sapiens, UniProt Q8N1Q1).
T4 construct: made in house; host or cells: E. coli
T4 sequence (Q8N1Q1 whole entry): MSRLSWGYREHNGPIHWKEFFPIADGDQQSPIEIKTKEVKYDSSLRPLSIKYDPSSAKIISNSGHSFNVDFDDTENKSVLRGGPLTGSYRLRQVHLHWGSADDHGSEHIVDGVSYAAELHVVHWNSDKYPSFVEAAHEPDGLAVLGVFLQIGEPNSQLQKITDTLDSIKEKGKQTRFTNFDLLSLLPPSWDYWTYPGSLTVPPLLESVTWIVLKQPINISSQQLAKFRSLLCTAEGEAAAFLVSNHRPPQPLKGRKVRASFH
Put plainly: Thermal shift assay (TSA), recombinant CAXIII. The format is binding. Particulars: 37 °C, pH 7.0, observed (not intrinsic).

The target of a further assay is T5, recombinant human CAIX (Homo sapiens, UniProt Q16790).
T5 construct: Isozymes CAIX, CAXII, and CAXIV were the catalytic domains of the proteins; made in house; host or cells: mammalian cells
The experiment in a line: Isothermal titration calorimetry (ITC) with recombinant CAIX. It counts as binding. As for the experimental part: as §1
Affinities of several selected compounds to several human CA isozymes have been determined by ITC as described previously[43],[44]. The protein solution was placed in the cell of iTC200 titration calorimeter while the compound solution in identical buffer was placed in the syringe. After thermal equilibration, the compound solution was injected into the cell by identical injections. The heat produced during the reaction was measured by the calorimeter providing the shape of the curve that in turn yielded the enthalpy and the affinity Kd of the interaction.
Picomolar Fluorescent Probes for Compound Affinity Determination to Carbonic Anhydrase IX Expressed in Live Cancer Cells
Figure S1. […] The binding affinity of GZ19-32 was too high to be accurately measured by ITC due to the limitation related to the Wiseman parameter C. […]

The target of the next assay is T6, CAII (Homo sapiens, UniProt P00918).
T6 construct: made in house; host or cells: E. coli
Put plainly: Thermal shift assay (TSA), recombinant CAII. The format is binding. Particulars: 37 °C, pH 7.0, observed (not intrinsic). The protocol:
as §1, §2, §3

Assay [1] has as its target T7, catalytic domain of recombinant human CAIX (Homo sapiens, UniProt Q16790).
T7 construct: Isozymes CAIX, CAXII, and CAXIV were the catalytic domains of the proteins; made in house; host or cells: mammalian cells
The experiment in a line: Thermal shift assay (TSA), recombinant CAIX catalytic domain. It counts as binding. Particulars: for Kd: TSA, 37 °C, pH 7.0, observed (not intrinsic), read-out: Kd CAIX; for binding to CAIX by TSA (in words): recombinant CAIX.

The target of a further assay is T8, CAIV (Homo sapiens, UniProt P22748).
T8 construct: made in house; host or cells: E. coli
T8 sequence (P22748 19-312): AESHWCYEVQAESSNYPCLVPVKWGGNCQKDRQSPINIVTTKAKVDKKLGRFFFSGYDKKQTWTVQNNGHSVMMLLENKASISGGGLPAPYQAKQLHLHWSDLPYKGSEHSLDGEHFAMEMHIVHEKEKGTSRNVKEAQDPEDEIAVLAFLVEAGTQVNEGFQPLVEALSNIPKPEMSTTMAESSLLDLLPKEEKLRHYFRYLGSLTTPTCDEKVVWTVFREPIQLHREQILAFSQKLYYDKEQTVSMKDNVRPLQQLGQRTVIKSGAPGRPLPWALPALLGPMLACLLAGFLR
Put plainly: Thermal shift assay (TSA), recombinant CAIV. It counts as binding. Particulars: 37 °C, pH 7.0, observed (not intrinsic).

The test system of assay [2] is HeLa CAIX-KO and normoxia-grown WT HeLa cells. Put plainly: Fluorescein-labeled compound dosing to CAIX-KO and normoxia-grown HeLa cells (non-specific binding). The format is cell-based, human. The protocol:
HeLa cell culture was grown in 12-well plates, either under hypoxia (1% O2) or under normoxia (21% O2), for 70 to 76 h. The medium was removed. Then 200 µL of serially diluted compound (twelve twofold steps) in the FB medium, usually starting at 80 nM (80, 40, 20, …, 0 nM), was added and incubated at 37 ℃ under normoxia in the CO2 incubator for 20 min (2 or 5 min in some experiments where specified). Then the compound solution was removed and the cells were washed 3 times for 1.5–2 min with 400 µL of PBS at RT. Then 180 µL of TrypLe express enzyme (ThermoFisher) was added to each well and incubated in CO2 incubator for 5 min to 10 min until the cells deattached from the surface. After addition of 20 µL of Defined Trypsin Inhibitor solution (ThermoFisher), cells were resuspended by pipetting and 150 µL of the suspension from each well were transferred to black Thermo Scientific™ Nunc MicroWell 96-Well Optical-Bottom Plates for fluorescence and absorbance measurements. The fluorescence was recorded at 485 nm excitation and 520 nm emission wavelengths in the plate reader (Synergy HTX, BioTek). The absorbance was recorded at 650 nm to measure the optical density of the cell suspension.
The compound solution was prepared by weighing 3–5 mg of a purified compound and dissolving in DMSO at 10 mM concentration. The 1 mM compound stock in DMSO was prepared by taking 10 µL of 10 mM stock and adding to 90 µL DMSO. The 10 µM compound stock was prepared by taking 10 µL of 1 mM compound stock in DMSO and adding 990 µL of the FB medium (this stock contained 1% of DMSO). Then 80 nM compound solution was prepared by taking 10 µL of 10 µM solution and adding 1.24 mL of the FB medium and placed to the first Eppendorf tube. Then 300 µL of FB medium were added to the Eppendorf tubes 2 to 12. A serial dilution was performed by taking 300 µL of solution from tube 1 to 2, then from 2 to 3 and so on while mixing vigorously at each step. No solution was transferred to the last tube thus it contained only FB medium and no compound. Then 200 µL from 12 tubes were transferred to the 12 wells of cell culture-containing 12-well plate, starting from the lowest concentration.
This equation was fit to the dosing curves of several fluorescently-labeled ligands to both the cells grown in hypoxia and in normoxia, both to the WT and CRISPR-Cas9 CAIX knockout cells. The cells bound both the GZ19-32 and GZ20-40 ligands that differed only in the length of the linker and both contained the same head-group. […] Furthermore, the ligands that had their sulfonamide amino group substituted with the methyl completely abandoned their capability of binding CAIX in this concentration region. The binding was also abolished for the CAIX-KO HeLa cells.

In a further assay the target is T9, CAIX on live HeLa cells (Homo sapiens, UniProt Q16790).
T9 construct: recombinant CAIX and endogenous CAIX expressed on the cell surface; endogenous in cells; host or cells: HeLa (WT), grown under hypoxia (1% O2)
The experiment in a line: Fluorescence microscopy (widefield, SRRF/TIRF) of live HeLa cells stained with fluorescein-labeled compounds. The format is cell-based. Particulars: 10 nM; for staining of live HeLa cells grown under hypoxia: 5 min.

T1 sequence (Q9Y2D0 34-317): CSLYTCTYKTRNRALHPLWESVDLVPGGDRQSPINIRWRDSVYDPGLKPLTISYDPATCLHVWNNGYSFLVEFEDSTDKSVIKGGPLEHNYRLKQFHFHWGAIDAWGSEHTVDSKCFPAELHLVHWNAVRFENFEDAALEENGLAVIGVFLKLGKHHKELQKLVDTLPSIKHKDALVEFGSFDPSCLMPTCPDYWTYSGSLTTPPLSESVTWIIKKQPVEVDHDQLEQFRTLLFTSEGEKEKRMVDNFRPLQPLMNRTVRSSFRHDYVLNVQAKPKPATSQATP
T3 sequence (P00915 whole entry): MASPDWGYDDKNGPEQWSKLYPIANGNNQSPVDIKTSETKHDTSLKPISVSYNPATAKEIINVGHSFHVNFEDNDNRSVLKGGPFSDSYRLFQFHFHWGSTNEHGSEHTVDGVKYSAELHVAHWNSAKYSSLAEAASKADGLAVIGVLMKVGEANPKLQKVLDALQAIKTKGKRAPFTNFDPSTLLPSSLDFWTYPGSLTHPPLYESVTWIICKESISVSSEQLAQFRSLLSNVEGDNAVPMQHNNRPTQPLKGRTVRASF

A word on the Kd: it is a measure of binding affinity in units of concentration. As for `NS(=O)(=O)c1c(F)c(F)c(S(=O)(=O)CCC(=O)Nc2ccc3c(c2)C(=O)OC32c3ccc(O)cc3Oc3cc(O)ccc32)c(NC2CCCCCCC2)c1F` [GZ19-32, 3-((2-(cyclooctylamino)-3,5,6-trifluoro-4-sulfamoylphenyl)sulfonyl)-N-(3',6'-dihydroxy-3-oxo-3H-spiro[isobenzofuran-1,9'-xanthen]-5-yl)propanamide], the Kd is 13 nM on CAVB; 1670 nM on CAIII; 500 nM on CAI; 0.67 nM on CAXIII; 14 nM at CAII; 0.005 nM in assay [1]. In addition, the Kd at CAIV worked out at 100 nM. Further, the “binding to CAIX by ITC (in words)” value at recombinant human CAIX is reported as “too high to be accurately measured”. Moreover, the “binding to CAIX by TSA (in words)” value in assay [1] is listed as “high affinity for CAIX (pM range)”. In assay [2] (5 min incubation, Fig. 9A), the “concentration above which compound binds normoxia-grown WT and CAIX-KO HeLa cells” value is recorded as over 100 nM. The “fluorescence of compound bound to HeLa CAIX-KO cells” value in assay [2] (CAIX-KO cells grown under hypoxia, 10 nM to 100 nM) is “did not show an increase in fluorescence”. For the same molecule, the “staining of live HeLa cells grown under hypoxia” value on CAIX on live HeLa cells is “labeled the cell membrane”. Moreover, the “Manders overlap coefficient M1, colocalization with H7 CAIX antibody” value on CAIX on live HeLa cells (hypoxia-grown live HeLa cells) amounted to 0.82. Moreover, at CAIX on live HeLa cells (hypoxia-grown live HeLa cells), the “Manders overlap coefficient M2, colocalization with H7 CAIX antibody” value was 0.65. Besides, at CAIX on live HeLa cells (hypoxia-grown live HeLa cells), the “object based spot collocalization with H7 CAIX antibody” value worked out at 0.75. The “pixel based Person's correlation coefficient, colocalization with H7 CAIX antibody” value on CAIX on live HeLa cells (hypoxia-grown live HeLa cells) turned out to be 0.82. In addition, the “Pearson co-localization coefficient with CAXII-selective 1B10 antibody” value at CAIX on live HeLa cells (hypoxia-grown live HeLa cells, SRRF/TIRF) was 0.02.
As to “3-((2-(cyclooctylamino)-3,5,6-trifluoro-4-(methylsulfonyl)phenyl)sulfonyl)-N-(3',6'-dihydroxy-3-oxo-3H-spiro[isobenzofuran-1,9'-xanthen]-5-yl)propanamide and 3-((3-(cyclooctylamino)-2,5,6-trifluoro-4-(methylsulfonyl)phenyl)sulfonyl)-N-(3',6'-dihydroxy-3-oxo-3H-spiro[isobenzofuran-1,9'-xanthen]-5-yl)propanamide [GZ20-37]”, the Kd (on CAVB; on CAIII; on CAI; on CAXIII; at CAII; in assay [1]) was over 100000 nM throughout. At CAIV, the Kd was over 100000 nM. Also, at recombinant human CAIX, the “binding to CAIX by ITC (in words)” value is reported as “did not show binding”. Besides, the “binding to CAIX by TSA (in words)” value in [1] is reported as “did not show binding”. Moreover, the “non-specific binding to cells” value in assay [2] (micromolar concentration range, Fig. 9B, 9C) is listed as “bound cells in the micromolar concentration range”. The “staining of live HeLa cells grown under hypoxia” value on CAIX on live HeLa cells is listed as “did not bind”.
